Source: ChEMBL document CHEMBL1201862, “PubChem BioAssay data set” (2004)
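Protocol summary: plate cells (96-well), add compound at 5 concentrations, incubate 48 h, interpolate endpoints linearly. GI50 marks 50% less growth.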 The source made the active and inactive calls. Cut-off read from the data, not from the text of the source: active = GI50 up to about 1.1 µM and inactive = higher.

Tests used:
Test in all cases: DTP human tumour cell line panel, 48 h
A549 = system: A549
CCRF-CEM = system: CCRF-CEM
COLO 205 = system: COLO 205
IGROV-1 = system: IGROV-1
K562 = system: K562
NCI-H226 = system: NCI-H226
RXF 393 = system: RXF 393
SK-MEL-28 = system: SK-MEL-28
SK-MEL-5 = system: SK-MEL-5
SN12C = system: SN12C
SNB-75 = system: SNB-75
SW-620 = system: SW-620
U-251 = system: U-251
UACC-257 = system: UACC-257
DLD-1 = system: DLD-1
DMS-114 = system: DMS-114
DMS-273 = system: DMS-273
HCT-15 = system: HCT-15
HL-60 = system: HL-60
XF498 = system: XF498

Row | SMILES | GI50 (A549) | GI50 (CCRF-CEM) | GI50 (COLO 205) | GI50 (IGROV-1) | GI50 (K562) | GI50 (NCI-H226) | GI50 (RXF 393) | GI50 (SK-MEL-28) | GI50 (SK-MEL-5) | GI50 (SN12C) | GI50 (SNB-75) | GI50 (SW-620) | GI50 (U-251) | GI50 (UACC-257) | GI50 (DLD-1) | GI50 (DMS-114) | GI50 (DMS-273) | GI50 (HCT-15) [µM] | GI50 (HL-60) | GI50 (XF498)
1 | COC(=O)N1CC2C3C4CC(C(c5ccccc5)=C4c4ccccc4)C3C21 (stereo not drawn) | 18 µM (inactive) | 14.9 µM (inactive) | 23.1 µM (inactive) | 17.5 µM (inactive) | 6.04 µM (inactive) | 14 µM (inactive) | 17.7 µM (inactive) | 19.9 µM (inactive) | 11.5 µM (inactive) | 17.6 µM (inactive) | 21.8 µM (inactive) | 18.1 µM (inactive) | 13.2 µM (inactive) | 13.7 µM (inactive) | – | – | – | – | – | –
2 | CCOC(=O)C[n+]1ccc2c([nH]c3cc(OC)ccc32)c1C | > 100 µM (inactive) | > 96.2 µM (inactive) | > 71.6 µM (inactive) | > 100 µM (inactive) | > 100 µM (inactive) | 36.8 µM (inactive) | > 100 µM (inactive) | > 100 µM (inactive) | > 77.8 µM (inactive) | > 81.5 µM (inactive) | > 100 µM (inactive) | > 100 µM (inactive) | > 77.4 µM (inactive) | > 100 µM (inactive) | > 100 µM (inactive) | > 83.2 µM (inactive) | > 100 µM (inactive) | > 100 | > 75.7 µM (inactive) | 25.9 µM (inactive)
3 | Cc1ccc(OP2(=O)Oc3ccc4ccccc4c3CN2c2ccc(Cl)cc2)cc1C (stereo not drawn) | > 100 µM (inactive) | > 100 µM (inactive) | > 100 µM (inactive) | > 100 µM (inactive) | > 100 µM (inactive) | > 100 µM (inactive) | > 100 µM (inactive) | > 100 µM (inactive) | > 100 µM (inactive) | > 100 µM (inactive) | > 100 µM (inactive) | > 100 µM (inactive) | > 100 µM (inactive) | > 100 µM (inactive) | > 100 µM (inactive) | > 100 µM (inactive) | > 100 µM (inactive) | > 100 | > 100 µM (inactive) | > 100 µM (inactive)
4 | O=[N+]([O-])c1cnccc1-n1nnc2ccccc21 | 25.1 µM (inactive) | 19.8 µM (inactive) | 17.9 µM (inactive) | 13.9 µM (inactive) | 20.7 µM (inactive) | 18.9 µM (inactive) | 17.3 µM (inactive) | 19.9 µM (inactive) | 13.9 µM (inactive) | 16 µM (inactive) | 15.2 µM (inactive) | 24.3 µM (inactive) | 22.5 µM (inactive) | 14.7 µM (inactive) | 20.2 µM (inactive) | 11.5 µM (inactive) | 14.1 µM (inactive) | 18 | 16 µM (inactive) | 13.8 µM (inactive)
5 | Cc1ccccc1NC(=O)C(=O)C(C1OC(=O)c2ccccc21)[N+](=O)[O-] (stereo not drawn) | > 100 µM (inactive) | 68.7 µM (inactive) | > 100 µM (inactive) | > 100 µM (inactive) | > 100 µM (inactive) | > 100 µM (inactive) | > 100 µM (inactive) | > 100 µM (inactive) | > 100 µM (inactive) | > 100 µM (inactive) | > 100 µM (inactive) | > 100 µM (inactive) | > 100 µM (inactive) | > 100 µM (inactive) | > 100 µM (inactive) | > 100 µM (inactive) | > 100 µM (inactive) | > 100 | > 100 µM (inactive) | > 100 µM (inactive)
6 | S=C(NCCCCCCNC(=S)Nc1c2ccccc2nc2ccccc12)Nc1c2ccccc2nc2ccccc12 | 87.5 µM (inactive) | 63 µM (inactive) | 50.5 µM (inactive) | > 81.5 µM (inactive) | 51.9 µM (inactive) | 10.8 µM (inactive) | > 100 µM (inactive) | > 100 µM (inactive) | > 93.1 µM (inactive) | > 83.8 µM (inactive) | 32.9 µM (inactive) | 52.8 µM (inactive) | > 91.8 µM (inactive) | > 90.8 µM (inactive) | 70.1 µM (inactive) | – | 65.9 µM (inactive) | 76.4 | 77.1 µM (inactive) | > 89.9 µM (inactive)
7 | O=C(O)C1CCC(=O)N1S(=O)(=O)c1ccccc1 (stereo not drawn) | > 100 µM (inactive) | > 100 µM (inactive) | > 100 µM (inactive) | > 100 µM (inactive) | > 100 µM (inactive) | > 100 µM (inactive) | > 100 µM (inactive) | > 100 µM (inactive) | > 100 µM (inactive) | > 100 µM (inactive) | > 100 µM (inactive) | > 100 µM (inactive) | > 100 µM (inactive) | > 100 µM (inactive) | > 100 µM (inactive) | > 100 µM (inactive) | > 100 µM (inactive) | > 100 | > 100 µM (inactive) | > 100 µM (inactive)
8 | CSCSCC(N)CO.Cc1[nH]c(=O)[nH]c(=O)c1/C=C/C(=O)O | > 625 µM (inactive) | > 625 µM (inactive) | > 625 µM (inactive) | > 625 µM (inactive) | > 625 µM (inactive) | > 625 µM (inactive) | > 625 µM (inactive) | > 625 µM (inactive) | > 625 µM (inactive) | > 625 µM (inactive) | 447 µM (inactive) | > 625 µM (inactive) | > 625 µM (inactive) | > 625 µM (inactive) | > 625 µM (inactive) | > 625 µM (inactive) | > 625 µM (inactive) | > 625 | > 625 µM (inactive) | > 625 µM (inactive)
9 | C=CC1(NC(=O)c2ccccc2)CCC(C(C)(C)C)CC1 (stereo not drawn) | 30.5 µM (inactive) | 18.5 µM (inactive) | 21.7 µM (inactive) | 37.6 µM (inactive) | 30.8 µM (inactive) | 27.8 µM (inactive) | 49.3 µM (inactive) | 42.6 µM (inactive) | 19.9 µM (inactive) | 35.2 µM (inactive) | 31.5 µM (inactive) | 35.3 µM (inactive) | 22.5 µM (inactive) | 26.4 µM (inactive) | 36.6 µM (inactive) | 27.7 µM (inactive) | 32.2 µM (inactive) | 32.4 | 14.4 µM (inactive) | > 43.1 µM (inactive)
10 | O=c1oc2cc(O)ccc2c2oc3cc(O)ccc3c12 [COUMESTROL] | 43.1 µM (inactive) | 8.81 µM (inactive) | 26 µM (inactive) | 79.8 µM (inactive) | 74 µM (inactive) | 4.18 µM (inactive) | 54.1 µM (inactive) | > 125 µM (inactive) | 9.91 µM (inactive) | 13.2 µM (inactive) | 94.8 µM (inactive) | 59 µM (inactive) | 33.3 µM (inactive) | 87.9 µM (inactive) | 62.5 µM (inactive) | 9.89 µM (inactive) | 54.7 µM (inactive) | 54.5 | 6.93 µM (inactive) | > 19.8 µM (inactive)
